Reference: patent US20230303613A1, “3′3′ CYCLIC DINUCLEOTIDES WITH AN ALKENYLENE” (Institute of Organic Chemistry and Biochemistry AS CR, v.v.i, priority 2020, published 2023)
Like-named read-outs stand apart in the source and are kept apart here.

Tests used:
WT STING [1] = target: T1, WT STING (Homo sapiens, UniProt Q86WV6, H232R); assay: Differential Scanning Fluorimetry with WT STING; format: binding; design: 8xHis (N, cleaved yes); SUMO (N, cleaved yes); made in house; host or cells: E. coli Rosetta-gami B (DE3); conditions: thermal shift vs apoprotein; 150 µM CDN; truncated human WT STING 0.1 mg/ml; read-out: DSF ΔTm WT STING
Excerpt: (§1) Purified PCR products were cleaved with restriction enzymes BamHI (cat. # R0136S, NEB, Ipswich, USA) and NotI (cat. # R0189S, NEB, Ipswich, USA) and cloned into the pSUMO vector linearized with the identical enzymes.
(§2) Bacterial pellets were re-suspended in ice-cold lysis buffer containing 50 mmol.1^-1 TrisCl (cat. # T1503, Sigma Aldrich, Czech Republic) pH 8.0, 300 mmol.1^-1 NaCl, 3 mmol.1^-1 β-mercaptoethanol (cat. # M6250, Sigma Aldrich, Czech Republic), 10% glycerol (cat. # G5516, Sigma Aldrich, Czech Republic) and 20 mmol.1^-1 imidazole (cat. # I5513, Sigma Aldrich, Czech Republic) using Dounce homogenizer. DNase I (cat. # D5025, Sigma Aldrich, Czech Republic) and RNase A (cat. # R6513, Sigma Aldrich, Czech Republic) were added (final concentration 50 µg/ml) together with MgCl2 (final concentration 5 mmol.l^-1) to the homogenate and bacteria were lysed using French Press G-M™ High-Pressure Cell Press Homogenizer (1500 psi, 3 cycles). […] The resin was poured into a chromatography column, washed with 50 ml buffer A (50 mmol.1^-1 TrisCl (pH 8.0), 800 mmol.1^-1 NaCl, 3 mmol.1^-1 β-mercaptol; 10% glycerol; 20 mmol.1^-1 imidazole) and 8-His-SUMO tagged STING proteins were eluted with 15 ml buffer A containing 300 mmol.1^-1 imidazole. […] Proteins were concentrated with Amicon® Ultra-15 10 K device (cat. # UFC901008, Merck Millipore, Billerica, USA) and flash frozen in liquid N2.
(§3) 20 µL solutions of the reaction mixtures were pipetted in triplicates into 96 well optical reaction plates and thermal denaturation of samples were performed on real time PCR cycler (LightCycler® 480 Instrument II - Roche, Basel, Switzerland). The first derivative of the thermal denaturation curves was performed to calculate denaturing temperatures of STING - CDN complexes and STING apoproteins. The thermal shift for each CDN was calculated by subtracting the average denaturing temperature of STING apoprotein from the average denaturing temperature of STING CDN complex.
Target sequence in this assay (Q86WV6 140-343 H232R): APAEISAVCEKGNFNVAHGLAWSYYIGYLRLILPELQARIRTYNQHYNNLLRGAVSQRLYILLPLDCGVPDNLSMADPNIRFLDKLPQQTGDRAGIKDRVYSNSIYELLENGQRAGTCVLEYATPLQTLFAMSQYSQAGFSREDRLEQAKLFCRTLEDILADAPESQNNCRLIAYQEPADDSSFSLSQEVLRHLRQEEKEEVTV

WT STING [2] = target: T1, WT STING; assay: 293T WT STING standard reporter assay; format: cell-based; conditions: 293T wtSTING-FL cells; 7 hours with compound, no digitonin; ISRE firefly luciferase reporter
Target sequence in this assay (Q86WV6 whole entry H232R, the tested form may be a part): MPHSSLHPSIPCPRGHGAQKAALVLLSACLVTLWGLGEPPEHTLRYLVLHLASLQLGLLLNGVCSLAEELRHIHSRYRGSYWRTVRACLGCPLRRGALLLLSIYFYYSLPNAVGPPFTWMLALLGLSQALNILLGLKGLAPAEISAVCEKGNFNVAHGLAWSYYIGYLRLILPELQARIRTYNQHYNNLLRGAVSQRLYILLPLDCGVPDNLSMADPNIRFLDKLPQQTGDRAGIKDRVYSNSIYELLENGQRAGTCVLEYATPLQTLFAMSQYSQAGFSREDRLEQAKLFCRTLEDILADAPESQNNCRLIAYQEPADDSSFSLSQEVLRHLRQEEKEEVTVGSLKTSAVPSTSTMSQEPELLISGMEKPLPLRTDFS

AQ STING (G230A-R293Q) = target: T2, AQ STING (G230A-R293Q) (Homo sapiens, UniProt Q86WV6, G230A/H232R/R293Q); assay: Differential Scanning Fluorimetry with AQ STING; format: binding; conditions: thermal shift vs apoprotein; 150 µM CDN; truncated human AQ STING 0.1 mg/ml; read-out: DSF ΔTm AQ STING
T2 construct: 8xHis (N, cleaved yes); SUMO (N, cleaved yes); made in house; host or cells: E. coli Rosetta-gami B (DE3)
T2 sequence (Q86WV6 140-343 G230A/H232R/R293Q): as the sequence (Q86WV6 140-343 H232R) above, with G91A, R154Q counted along it
Excerpt: as §1, §2, §3

WT STING [3] = target: T1, WT STING; assay: Digitonin assay using 293T wtSTING-FL reporter cells; format: cell-based; conditions: 293T wtSTING-FL cells; 30 minutes in Digitonin buffer, then 5 hours; ISRE firefly luciferase reporter
Excerpt: Two complementary oligonucleotides of the sequence […] […] […] […] […] The oligonucleotides were mixed in equal molar amounts, hybridized, and cleaved by restriction endonucleases HindIII (cat. #. R0104S, NEB, Ipswich, USA) and BglII (cat. # R0144S, NEB, Ipswich, USA). Ultimately, they were ligated into plasmid pGL4.27 (cat. # E6651, Promega, Madison, USA) linearized with the same enzymes. As result the sequence with four ISRE sites was placed upstream of the minimum promoter of firefly luciferase reporter gene.
After 5 minutes incubation at room temperature (RT), 250 µL of the mixture was added dropwise to the cells in one well. Cells were incubated 36 hours at 37° C. with 5% CO2, and then detached with 0.05% Trypsin and 0.22 g/L EDTA (both cat. # L0941, Biowest, Riverside, USA).
Transfected cells were seeded onto poly-D-lysine coated six well plates at density 50,000 cells per 1 cm^2 in DMEM medium with high glucose containing 10% heat inactivated FBS, 30 µg/mL blasticidin (cat. # ant-bl-05, InvivoGen, San Diego, USA), 0.06 mg/ml Penicillin G and 0.1 mg/ml Streptomycin Sulfate (both cat. #. L0018, Biowest, Riverside, USA). The medium was replenished every 3 - 4 days until visible colonies of cells resistant to blasticidin were formed.
Blasticidin resistant cells stably expressing WT STING were further transfected with […] plasmid following the same procedure as described above. […] Homogeneous culture of stably double transfected cells was prepared by limiting dilution of cells in 96 well plates and wells with cells were selected that originated from a single cell.
The medium was removed next day and three fold serial dilutions of compounds in Digitonin buffer containing 50 mmol.l^-1 HEPES (cat. # H3375, Sigma Aldrich, Czech Republic) pH 7.0, 100 mmol.1^-1 KCl, 3 mmol.l^-1 MgCl2, 0.1 mmol.l^-1 DTT (cat. # D0632, Sigma Aldrich, Czech Republic), 85 mmol.1^-1 Sucrose (cat. # S7903, Sigma Aldrich, Czech Republic), 0.2% BSA (cat. # A2153, Sigma Aldrich, Czech Republic), 1 mmol.l^-1 ATP (cat. # A1852, Sigma Aldrich, Czech Republic), 0.1 mmol.1^-1 GTP (cat. # G8877, Sigma Aldrich, Czech Republic), and 10 µg/mL Digitonin A (cat. # D141, Sigma Aldrich, Czech Republic) were added to the cells. The buffer was removed after 30 minutes incubation at 37° C. with 5% CO2, the cells were washed once with 100 µl of cultivation medium, and 100 µl of medium was added to each well. The plates with cells were incubated for 5 hours at 37° C. with 5% CO2, 50µl of the medium was removed and 30 µl of ONE-Glo^Tm Luciferase Assay System reagent (cat. # E6120, Promega, Madison, USA) was added to each well. Luminescence was read on Synergy H1 (Biotek, Winooski, USA).
Target sequence in this assay (Q86WV6 whole entry H232R, the tested form may be a part): as the sequence (Q86WV6 whole entry H232R, the tested form may be a part) above

[4] = system: peripheral blood mononuclear cell (PBMC); assay: Peripheral blood mononuclear cell assay; format: cell-based; conditions: PBMC, 1h with compound, washed, 15 hour incubation
Experimental: Selected compounds were tested in an in vitro peripheral blood mononuclear cell (PBMC) assay. Freshly isolated PBMCs were seeded into U-shaped shaped 96-well plates at desity 500,000 cells per well in 50 µl of RPMI 1640 medium supplemented with 10% heat inactivated FBS. Serially dilluted tested compounds were added to wells in 50 µl of cultivation medium and cell were incubated with compounds for 1h at 37° C. with 5% CO2. Plates with cells were then spun 500 g for 5 minutes and medium was removed. Cells were washed twice with the cell culture medium by the use of centrifugation and gently resuspended in 100 µl medium without compounds. After 15 hour incubation at 37° C. with 5% CO2, the cell culture medium was collected and the levels of interferon-alpha (INF-α), interferon-gamma (INF-γ) and tumor necrosis factor-alpha (TNF-α) were determined with ProcartaPlex Assays (ThermoFisher, Waltham, USA) and MAGPIX System (Merck KGaA, Darmstadt, Germany).

ΔTm at 150 µM (WT STING [1]): 6.9 °C
EC50 (WT STING [2]): 10.1 µM
ΔTm at 150 µM (AQ STING (G230A-R293Q)): 11.6 °C
EC50 (WT STING [3]): 0.03 µM
SMILES: Nc1ncnc2c1ncn2[C@@H]1O[C@@H]2/C=C/P(=O)(O)O[C@H]3[C@@H](F)[C@H](n4cnc5c(N)ncnc54)O[C@@H]3COP(=O)(O)O[C@H]2[C@H]1F [Compound 53]
EC50 ([4]; IFN-α level in medium, read-out: PBMC EC50 IFN-α): 120 µM
EC50 ([4]; IFN-γ level in medium, read-out: PBMC EC50 IFN-γ): 36 µM
EC50 ([4]; TNF-α level in medium, read-out: PBMC EC50 TNF-α): 54 µM
